According to ChEMBL document CHEMBL1671643, “Relative strengths of the class 1 integron promoter hybrid 2 and the combinations of strong and hybrid 1 with an active p2 promoter” (2009):
In brackets after ≈: the same amount, converted by molar mass.

How the values were obtained:
Assay type in all cases: functional
Escherichia coli [1] = test: Antimicrobial activity against Escherichia coli MC4100 expressing promoterless beta-lactamase GES-1 by Etest
Escherichia coli [2] = test: Antimicrobial activity against Escherichia coli MC4100 harboring strong promoter in beta-lactamase GES-1 by Etest
Escherichia coli [3] = test: Antimicrobial activity against Escherichia coli MC4100 harboring weak promoter and active promoter P2 in beta-lactamase GES-1 by Etest
Escherichia coli [4] = test: Antimicrobial activity against Escherichia coli MC4100 harboring strong promoter and active promoter P2 in beta-lactamase GES-1 by Etest
Escherichia coli [5] = test: Antimicrobial activity against Escherichia coli MC4100 harboring a weak promoter in beta-lactamase GES-1 by Etest
Escherichia coli [6] = test: Antimicrobial activity against Escherichia coli MC4100 harboring promoter hybrid 1 in beta-lactamase GES-1 by Etest
Escherichia coli [7] = test: Antimicrobial activity against Escherichia coli MC4100 harboring promoter hybrid 1 and active promoter P2 in beta-lactamase GES-1 by Etest
Escherichia coli [8] = test: Antimicrobial activity against Escherichia coli MC4100 harboring promoter hybrid 2 in beta-lactamase GES-1 by Etest

SMILES | MIC (Escherichia coli [1]) [µg/mL] | MIC (Escherichia coli [2]) [µg/mL] | MIC (Escherichia coli [3]) [µg/mL] | MIC (Escherichia coli [4]) [µg/mL] | MIC (Escherichia coli [5]) [µg/mL] | MIC (Escherichia coli [6]) [µg/mL] | MIC (Escherichia coli [7]) [µg/mL] | MIC (Escherichia coli [8]) [µg/mL]
CC1(C)S[C@@H]2[C@H](NC(=O)[C@H](N)c3ccc(O)cc3)C(=O)N2[C@H]1C(=O)O [AMOXICILLIN] | 4 (≈ 10.9 µM) | > 256 | > 256 | > 256 | > 256 | > 256 | > 256 | > 256
C[C@H]1[C@H](NC(=O)/C(=N\OC(C)(C)C(=O)O)c2csc(N)n2)C(=O)N1S(=O)(=O)O [AZTREONAM] |  | 0.19 (≈ 0.436 µM) | 0.094 (≈ 0.216 µM) | 0.25 (≈ 0.574 µM) | 0.047 (≈ 0.108 µM) | 0.047 (≈ 0.108 µM) | 0.125 (≈ 0.287 µM) | 0.094 (≈ 0.216 µM)
N[C@@H](C(=O)N[C@@H]1C(=O)N2C(C(=O)O)=C(Cl)CS[C@H]12)c1ccccc1 [CEFACLOR ANHYDROUS] | 1.5 (≈ 4.08 µM) | 256 (≈ 696 µM) | 24 (≈ 65.3 µM) | 256 (≈ 696 µM) | 6 (≈ 16.3 µM) | 8 (≈ 21.8 µM) | 24 (≈ 65.3 µM) | 24 (≈ 65.3 µM)
CO/N=C(\C(=O)N[C@@H]1C(=O)N2C(C(=O)[O-])=C(C[N+]3(C)CCCC3)CS[C@H]12)c1csc(N)n1 [CEFEPIME] | 0.032 (≈ 0.0666 µM) | 0.19 (≈ 0.395 µM) | 0.094 (≈ 0.196 µM) | 0.19 (≈ 0.395 µM) | 0.032 (≈ 0.0666 µM) | 0.064 (≈ 0.133 µM) | 0.125 (≈ 0.26 µM) | 0.125 (≈ 0.26 µM)
CC(C)(O/N=C(\C(=O)N[C@@H]1C(=O)N2C(C(=O)[O-])=C(C[n+]3ccccc3)CS[C@H]12)c1csc(N)n1)C(=O)O [CEFTAZIDIME] | 0.064 (≈ 0.117 µM) | 12 (≈ 22 µM) | 4 (≈ 7.32 µM) | 16 (≈ 29.3 µM) | 0.75 (≈ 1.37 µM) | 1.5 (≈ 2.74 µM) | 6 (≈ 11 µM) | 4 (≈ 7.32 µM)
CO/N=C(\C(=O)N[C@@H]1C(=O)N2C(C(=O)O)=C(COC(N)=O)CS[C@H]12)c1ccco1 [CEFUROXIME] | 2 (≈ 4.71 µM) | > 256 | 96 (≈ 226 µM) | > 256 | 8 (≈ 18.9 µM) | 32 (≈ 75.4 µM) | 256 (≈ 603 µM) | 128 (≈ 302 µM)
CCN1CCN(C(=O)N[C@@H](C(=O)N[C@@H]2C(=O)N3[C@@H]2SC(C)(C)[C@@H]3C(=O)O)c2ccccc2)C(=O)C1=O [PIPERACILLIN] | 1 (≈ 1.93 µM) | 24 (≈ 46.4 µM) | 12 (≈ 23.2 µM) | 24 (≈ 46.4 µM) | 2 (≈ 3.86 µM) | 4 (≈ 7.73 µM) | 16 (≈ 30.9 µM) | 12 (≈ 23.2 µM)
